{"source": "patent US20100285959A1", "about": "“HERBICIDAL MIXTURES” (priority 2006, published 2010)", "key": {"[1]": {"tested_on": "corn (ZEAMD)", "assay": "Test 1 field trial, preemergence", "format": "in vivo, Zea mays ssp. indentata", "settings": "hybrid Pioneer 34N43, corn (Zea mays ssp. indentata), in vivo", "excerpt": "Corn seeds (hybrid ‘Pioneer 34N43’) were planted in mid spring season, 3.8 cm deep in a silt loam soil having 4.6% organic matter and a pH of 6. Plots were 10.7 m long by 1.5 m wide with rows spaced 76 cm apart. Seeds were spaced 18 cm apart within the rows. The field was managed using conventional tillage practices. […] Results are summarized in Table 1 and are the means of the three replicates. […] Colby's Equation (Colby, S. R. “Calculating Synergistic and Antagonistic Responses of Herbicide Combinations,” Weeds, 15(1), pp 20-22 (1967)) calculates the expected additive effect of herbicidal mixtures, and for two active ingredients is of the form:\nPa+b=Pa+Pb−(PaPb/100) • wherein Pa+b is the percentage effect of the mixture expected from additive contribution of the individual components, • Pa is the observed percentage effect of the first active ingredient at the same use rate as in the mixture, and • Pb is the observed percentage effect of the second active ingredient at the same use rate as in the mixture."}, "[2]": {"tested_on": "jimsonweed (DATST)", "assay": "Test 7 field trial, preemergence", "format": "in vivo, Datura stramonium", "method": "Plots were 7.6 m long by 3.0 m wide with rows spaced 76 cm apart. Seeds were spaced 15 cm apart within the rows. The field was managed using conventional tillage practices. […] Wild radish was evaluated 14 and 28 days after application. […] Results are the means of the three replicates."}, "[3]": {"tested_on": "jimsonweed (DATST)", "assay": "Test 8 field trial, preemergence", "format": "in vivo, Datura stramonium", "excerpt": "Corn seeds (hybrid ‘Pioneer 31G96’) were planted in mid spring season, 3.8 cm deep in a clay loam soil having 2% organic matter and a pH of 6.6. Plots were 6.1 m long by 3.0 m wide with rows spaced 76 cm apart. Seeds were spaced 15 cm apart within the rows. The field was managed using conventional tillage practices. […] A few of the weed species could not be evaluated at every timing. […] Results are the means of the three replicates."}, "[4]": {"tested_on": "ivyleaf morningglory (IPOHE)", "assay": "Test 10 field trial, preemergence", "format": "in vivo, Ipomoea hederacea", "settings": "28 DAA", "excerpt": "Corn seeds (hybrid ‘Pioneer 33P65 RR’) were planted in mid spring season, 2.5 cm deep in a silt loam soil. Plots were 9.1 m long by 3.0 m wide with rows spaced 76 cm apart. The field was managed using conventional tillage practices. […] Results are the means of the three replicates."}, "[5]": {"tested_on": "alexandergrass (BRAPL)", "assay": "Test 11 field trial, preemergence", "format": "in vivo, Brachiaria plantaginea", "parameters": "scale not given here", "settings": "alone or + atrazine 1500 or metolachlor 2500", "excerpt": "(§1) Corn seeds (hybrid ‘Pioneer 3041’) were planted in mid spring season, 5 cm deep in a clay soil having 2.6% organic matter and a pH of 5.6. Plots were 8 m long by 1.5 m wide with rows spaced 80 cm apart. Seeds were spaced 15 cm apart within the rows. The field was managed using conventional tillage practices. […] Treatments consisted of Compound 2 or\n(§2) Goosegrass was not evaluated 16 or 91 days after application."}, "[6]": {"tested_on": "southern sandbur (CCHEC)", "assay": "Test 11 field trial, preemergence", "format": "in vivo, Cenchrus echinatus", "parameters": "scale not given here", "settings": "alone or + atrazine 1500 or metolachlor 2500", "excerpt": "as §1, §2"}, "[7]": {"tested_on": "Brazilian crabgrass (DIGHO)", "assay": "Test 11 field trial, preemergence", "format": "in vivo, Digitaria horizontalis", "parameters": "scale not given here", "settings": "alone or + atrazine 1500 or metolachlor 2500", "excerpt": "as §1, §2"}, "[8]": {"tested_on": "winter barley (HORVW)", "assay": "Test 23 growth chamber, postemergence", "format": "in vivo, Hordeum vulgare", "settings": "21 DAA", "method": "A test was conducted to evaluate the effects on winter barley (HORVW, Hordeum vulgare L.), winter wheat (TRZAW, Triticum aestivum L.), and several weed species of mixtures of Compound 2 with the commercial herbicides (2,4-dichlorophenoxy)acetic acid (2,4-D) and (4-chloro-2-methylphenoxy)acetic acid (MCPA), auxin mimics. […] Plants were treated postemergence at the 2-4 leaf growth stage, and each treatment was replicated three times. […] Plants were watered as needed. […] Results are means of the three replicates."}, "[9]": {"settings": "16 DAA, Cpd 2/Cpd 1 at 62 g a.i./ha"}, "[10]": {"settings": "16 DAA, Cpd 2/Cpd 1 at 125 g a.i./ha"}, "[11]": {"settings": "30 DAA, Cpd 2/Cpd 1 at 62 g a.i./ha"}, "[12]": {"settings": "30 DAA, Cpd 2/Cpd 1 at 125 g a.i./ha"}, "[13]": {"settings": "44 DAA, Cpd 2/Cpd 1 at 62 g a.i./ha"}, "[14]": {"settings": "44 DAA, Cpd 2/Cpd 1 at 125 g a.i./ha"}, "[15]": {"settings": "62 DAA, Cpd 2/Cpd 1 at 62 g a.i./ha"}, "[16]": {"settings": "62 DAA, Cpd 2/Cpd 1 at 125 g a.i./ha"}, "[17]": {"settings": "91 DAA, Cpd 2/Cpd 1 at 62 g a.i./ha"}, "[18]": {"settings": "91 DAA, Cpd 2/Cpd 1 at 125 g a.i./ha"}}}
{"smiles": "COC(=O)c1nc(C2CC2)nc(N)c1Cl", "note": "[Compound 2, methyl 6-amino-5-chloro-2-cyclopropyl-4-pyrimidinecarboxylate]", "values": [{"measurement": "ZEAMD Obs", "setting": "[1]; 28 days after application", "result": 0}, {"measurement": "ZEAMD Obs", "setting": "[1]; 56 days after application", "result": 0}, {"measurement": "DATST Obs", "setting": "[2]; 14 DAA, 125 g a.i./ha", "result": 98, "unit": "%"}, {"measurement": "DATST Obs", "setting": "[2]; 14 DAA, 250 g a.i./ha", "result": 98, "unit": "%"}, {"measurement": "DATST Obs", "setting": "[2]; 14 DAA, 500 g a.i./ha", "result": 100, "unit": "%"}, {"measurement": "DATST Obs", "setting": "[2]; 28 DAA, 125 g a.i./ha", "result": 98, "unit": "%"}, {"measurement": "DATST Obs", "setting": "[2]; 28 DAA, 250 g a.i./ha", "result": 98, "unit": "%"}, {"measurement": "DATST Obs", "setting": "[2]; 28 DAA, 500 g a.i./ha", "result": 100, "unit": "%"}, {"measurement": "DATST Obs", "setting": "[2]; 62 DAA, 125 g a.i./ha", "result": 100, "unit": "%"}, {"measurement": "DATST Obs", "setting": "[2]; 62 DAA, 500 g a.i./ha", "result": 100, "unit": "%"}, {"measurement": "DATST Obs", "setting": "[3]; 19 DAA, g a.i./ha: Cpd 2 50, S-Metolachlor 1870", "result": 33, "unit": "%"}, {"measurement": "DATST Obs", "setting": "[3]; 19 DAA, g a.i./ha: Cpd 2 100, Atrazine 1680, S-Metolachlor 1870", "result": 52, "unit": "%"}, {"measurement": "DATST Obs", "setting": "[3]; 19 DAA, g a.i./ha: Cpd 2 150, S-Metolachlor 1870", "result": 65, "unit": "%"}, {"measurement": "DATST Obs", "setting": "[3]; 29 DAA, g a.i./ha: Cpd 2 50, S-Metolachlor 1870", "result": 45, "unit": "%"}, {"measurement": "DATST Obs", "setting": "[3]; 29 DAA, g a.i./ha: Cpd 2 100, Atrazine 1680, S-Metolachlor 1870", "result": 63, "unit": "%"}, {"measurement": "DATST Obs", "setting": "[3]; 29 DAA, g a.i./ha: Cpd 2 150, S-Metolachlor 1870", "result": 85, "unit": "%"}, {"measurement": "DATST Obs", "setting": "[3]; 56 DAA, g a.i./ha: Cpd 2 50, S-Metolachlor 1870", "result": 65, "unit": "%"}, {"measurement": "DATST Obs", "setting": "[3]; 56 DAA, g a.i./ha: Cpd 2 100, Atrazine 1680, S-Metolachlor 1870", "result": 90, "unit": "%"}, {"measurement": "DATST Obs", "setting": "[3]; 56 DAA, g a.i./ha: Cpd 2 150, S-Metolachlor 1870", "result": 100, "unit": "%"}, {"measurement": "IPOHE Obs", "setting": "[4]; g a.i./ha: Cpd 2 50, S-Metolachlor 1870", "result": 13, "unit": "%"}, {"measurement": "IPOHE Obs", "setting": "[4]; g a.i./ha: Cpd 2 100, Atrazine 1680, S-Metolachlor 1870", "result": 5, "unit": "%"}, {"measurement": "IPOHE Obs", "setting": "[4]; g a.i./ha: Cpd 2 150, S-Metolachlor 1870", "result": 20, "unit": "%"}, {"measurement": "BRAPL Obs", "setting": "[5]; [9]", "result": 40}, {"measurement": "BRAPL Obs", "setting": "[5]; [10]", "result": 70}, {"measurement": "BRAPL Obs", "setting": "[5]; [11]", "result": 0}, {"measurement": "BRAPL Obs", "setting": "[5]; [12]", "result": 75}, {"measurement": "BRAPL Obs", "setting": "[5]; [13]", "result": 0}, {"measurement": "BRAPL Obs", "setting": "[5]; [14]", "result": 60}, {"measurement": "BRAPL Obs", "setting": "[5]; [15]", "result": 0}, {"measurement": "BRAPL Obs", "setting": "[5]; [16]", "result": 0}, {"measurement": "BRAPL Obs", "setting": "[5]; [17]", "result": 0}, {"measurement": "BRAPL Obs", "setting": "[5]; [18]", "result": 0}, {"measurement": "CCHEC Obs", "setting": "[6]; [9]", "result": 0}, {"measurement": "CCHEC Obs", "setting": "[6]; [10]", "result": 40}, {"measurement": "CCHEC Obs", "setting": "[6]; [11]", "result": 0}, {"measurement": "CCHEC Obs", "setting": "[6]; [12]", "result": 40}, {"measurement": "CCHEC Obs", "setting": "[6]; [13]", "result": 0}, {"measurement": "CCHEC Obs", "setting": "[6]; [14]", "result": 0}, {"measurement": "CCHEC Obs", "setting": "[6]; [15]", "result": 0}, {"measurement": "CCHEC Obs", "setting": "[6]; [16]", "result": 0}, {"measurement": "CCHEC Obs", "setting": "[6]; [17]", "result": 0}, {"measurement": "CCHEC Obs", "setting": "[6]; [18]", "result": 0}, {"measurement": "DIGHO Obs", "setting": "[7]; [9]", "result": 0}, {"measurement": "DIGHO Obs", "setting": "[7]; [10]", "result": 40}, {"measurement": "DIGHO Obs", "setting": "[7]; [11]", "result": 0}, {"measurement": "DIGHO Obs", "setting": "[7]; [12]", "result": 40}, {"measurement": "DIGHO Obs", "setting": "[7]; [13]", "result": 0}, {"measurement": "DIGHO Obs", "setting": "[7]; [14]", "result": 0}, {"measurement": "DIGHO Obs", "setting": "[7]; [15]", "result": 0}, {"measurement": "DIGHO Obs", "setting": "[7]; [16]", "result": 0}, {"measurement": "DIGHO Obs", "setting": "[7]; [17]", "result": 0}, {"measurement": "DIGHO Obs", "setting": "[7]; [18]", "result": 0}, {"measurement": "Postemergence HORVW Obs", "setting": "[8]; Cpd 2 alone 4 g a.i./ha", "result": 32}, {"measurement": "Postemergence HORVW Obs", "setting": "[8]; Cpd 2 alone 8 g a.i./ha", "result": 38}, {"measurement": "Postemergence HORVW Obs", "setting": "[8]; Cpd 2 alone 16 g a.i./ha", "result": 38}]}
